Values quoted from earlier work in patent publication US20220088144A1, “SGLT-2 INHIBITORS OR IL-1R ANTAGONISTS FOR REDUCTION OF HYPOGLYCAEMIA AFTER BARIATRIC SURGERY” (UNIVERSITÄTSSPITAL BASEL, priority 2019, published 2022).

Target: T1, sodium glucose co-transporter 2 (SGLT2) (Homo sapiens, UniProt P31639)
T1 construct: SGLT2 is predominantly expressed in the proximal tubule of the kidney; host or cells: endogenous transporter of the kidney proximal tubule (in vivo, patients)
T1 sequence (P31639 1-672): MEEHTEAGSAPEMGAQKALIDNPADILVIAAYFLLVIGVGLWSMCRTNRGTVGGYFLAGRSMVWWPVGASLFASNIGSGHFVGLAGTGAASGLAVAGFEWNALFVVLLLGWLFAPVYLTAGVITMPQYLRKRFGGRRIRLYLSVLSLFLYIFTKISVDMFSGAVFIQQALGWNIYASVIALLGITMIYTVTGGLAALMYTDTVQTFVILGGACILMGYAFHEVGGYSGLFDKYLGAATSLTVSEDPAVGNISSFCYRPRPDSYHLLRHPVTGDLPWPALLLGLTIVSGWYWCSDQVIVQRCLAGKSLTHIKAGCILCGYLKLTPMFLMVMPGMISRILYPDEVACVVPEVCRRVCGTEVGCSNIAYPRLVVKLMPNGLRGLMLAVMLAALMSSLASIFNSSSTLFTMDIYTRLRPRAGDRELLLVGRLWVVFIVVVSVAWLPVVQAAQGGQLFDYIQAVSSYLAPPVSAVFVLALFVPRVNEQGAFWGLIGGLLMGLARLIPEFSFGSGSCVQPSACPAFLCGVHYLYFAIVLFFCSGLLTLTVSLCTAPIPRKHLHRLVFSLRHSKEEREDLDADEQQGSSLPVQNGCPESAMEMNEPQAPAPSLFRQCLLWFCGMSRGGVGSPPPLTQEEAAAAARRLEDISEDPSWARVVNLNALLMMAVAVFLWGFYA
Details: cited from earlier work

**Q.** Which results are given for OC[C@H]1O[C@@H](c2ccc(Cl)c(Cc3ccc(O[C@H]4CCOC4)cc3)c2)[C@H](O)[C@@H](O)[C@@H]1O [empagliflozin]?
**A.** duration of glucosuria (after oral administration): at least 24 hours; glucosuria (in vivo): 64 g glucose per day
